This note sets out measurements from US20260355199A1, “COMPOSITIONS AND METHODS FOR TREATING OR PREVENTING NONALCOHOLIC STEATOHEPATITIS (NASH), ANOREXIA, DEPRESSION, ENDOMETRIOSIS, AND OTHER DISEASES OR DISORDERS” (priority 2022, published 2026).

Entries after “also recorded” stand apart in the source; their conditions may differ.

One test relates to Tet3 mRNA. Briefly: Tet3 mRNA (RT-qPCR) in GT1-7 cells. Conditions: 10 μM, 6 h. It is filed as cell-based, mouse. As for the experimental part: (§1) For Bobcat339 treatment (FIG. 15A and FIG. 15B), GT1-7 cells grown in 24-well plates at 2×10^5 cells/well were incubated with vehicle or Bobcat339 at a final concentration of 10 μM for 6 h, followed by RNA and protein extractions. For TET3 protein stability assay (FIG. 15B), GT1-7 cells in 24-well plates at 2×10^5 cells/well were incubated with vehicle or Bobcat339 at a final concentration of 10 μM for 3 hours, followed by addition of cycloheximide (CHX, Cell Signaling, 2112) at a final concentration of […] in the presence of 10 μM of Bobcat339. Proteins were harvested at 0, 1, 2, and 3 hours after addition of CHX. For TET3 expression restoration experiments (FIG. 15C and FIG. 15D), GT1-7 or SH-SY5Y cells seeded in 24-well plates at 2×10^5 cells/well were infected with Ad-GFP or Ad-TET3 at 4000 gc/cell. Following 16 h of infection, vehicle or Bobcat339 were added at a final concentration of 10 μM. Protein and RNA were isolated 48 h later and analyzed.
Total RNAs were extracted from neuronal cells or homogenized hypothalamic arcuate nucleus tissue samples using PureLink RNA Mini Kit (Ambion, 12183025). cDNA was synthesized using PrimeScript RT Reagent Kit in a 20 μl reaction containing 0.5-1 μg of total RNA. Real-time quantitative PCR was performed in a 15 μl reaction containing 0.5-1 μl of cDNA using SsoAdvanced Universal SYBR Green Supermix in a Bio-Rad iCycler. […]
(Quantitative PCR measures a nucleic acid by following its amplification.)

In test [1] the test system is TET2. The test can be described thus: TET2 protein in human MDMs. It is filed as cell-based. As to conditions: 24 h. As for the experimental part: Bobcat339 Treatment of Cultured Cells Bobcat339 powder (Sigma-Aldrich, SML2611) was freshly dissolved in DMSO at a concentration of 5 mM and filtered through a 0.22 micron. Cells grown at a density of 80-90% were incubated in growth media with vehicle (DMSO) or Bobcat339 at a final concentration of 10 μM for 24 h, followed by RNA and protein extraction.
For cultured MDMs, cells were primed with CM-Endo or TGF-β1 (PeproTech, 100-21) for 36-48 h (to increase TET3 expression) before Bobcat339 treatment.
Cells were homogenized in situ using a pipette tip in 2×SDS-sample buffer with 10% β-mercaptoethanol at RT followed by heating at 100 °C for 5 min with occasional vortexing. The samples were loaded onto a 4-15% gradient SDS gel (Bio-rad, 456-8086) (10 μL/well) and transferred to nitrocellulose membranes, followed by Western blot analysis. The antibodies used were anti-TET3 (diluted at 1:1000, GeneTex, GTX121453 for human; diluted at 1:1000, Active Motif, 61395 for mouse), anti-TET2 (diluted at 1:1000, Proteintech, 21207-1-AP for human/mouse), anti-TGF-β1 (diluted at 1:1000, Abcam, ab215715 for human), anti-Lin28A (diluted at 1:1000, Cell Signaling, 3978S), and HRP-conjugated anti-GAPDH (dilution 1:5000; Proteintech, HRP-60004). The secondary antibody was HRP-linked Anti-rabbit IgG (dilution 1:10,000; Rockland, 611-1322).

The next test relates to AGRP, NPY, and VGAT. Briefly: AGRP, NPY and VGAT expression in the ARC of mice. It is filed as in vivo, mouse. Conditions: Bobcat339 vs. vehicle mice. The method, then: The GFP construct used for tagging AgRP neurons labels almost exclusively the perikaryon. The presence of AGRP, NPY, and VGAT outside the perikarya reflected the fact that these fast-firing neurons transport their neuromodulatory products rabidly to the neuronal processes.
(§2) Bobcat339 powder (Sigma-Aldrich, SML2611) was freshly dissolved in DMSO (vehicle) at a concentration of 50 mg/mL and filtered through a 0.22 micron. It was further diluted with 1×PBS to a final concentration of 0.5 mg/mL before injections. Mice were injected intraperitoneally with Bobcat339 at 1 mg/kg, 2.5 mg/kg, or 4 mg/kg.
Total RNAs were extracted from neuronal cells or homogenized hypothalamic arcuate nucleus tissue samples using PureLink RNA Mini Kit (Ambion, 12183025). cDNA was synthesized using PrimeScript RT Reagent Kit in a 20 μl reaction containing 0.5-1 μg of total RNA. Real-time quantitative PCR was performed in a 15 μl reaction containing 0.5-1 μl of cDNA using SsoAdvanced Universal SYBR Green Supermix in a Bio-Rad iCycler. Specificity was verified by melting curve analysis. The Ct values of each sample were used in the post-PCR data analysis. […]
The immunofluorescence for brain slices was conducted using previous methods (18). […] The sections were coverslipped and scoped using a Keyence BZ-X700 fluorescence microscope. The fluorescence signals from GFP in AgRP neurons were detected without immunostaining.

Another test concerns TET3. The test can be described thus: TET3 protein stability (cycloheximide time course) in GT1-7 cells. Type of test: cell-based. As to conditions: 10 μM, with cycloheximide; mouse neuronal cells. The method, then: as §1
For test [2], the system named is TET2. The test can be described thus: TET2 expression in the ARC of mice. It is filed as in vivo, mouse. As to conditions: 2.5 mg/kg i.p., two days. As for the experimental part:
To test whether Bobcat339 affects TET3 protein expression in AgRP neurons, Agrp-IRES-Cre::LSL-Cas9-GFP mice with GFP expression specifically in AgRP neurons were intraperitoneally injected with vehicle or Bobcat339 at 2.5 mg/kg, followed by isolation of ARCs under fed conditions (9:00-11:00) two days later. This dose was chosen based on the dose response studies. TET2 expression was widespread but was negligible in AgRP neurons.
as §2
The immunofluorescence for brain slices was conducted using previous methods (18). In brief, postfixed sections were cut into 40-μm-thick sections, followed by 5 times washing. […] The sections were coverslipped and scoped using a Keyence BZ-X700 fluorescence microscope. The fluorescence signals from GFP in AgRP neurons were detected without immunostaining.

Take `Nc1nc(=O)n(-c2cccc(-c3ccccc3)c2)cc1Cl` [Bobcat339, 4-Amino-1-[1,1′-biphenyl]-3-yl-5-chloro-2(1H)-pyrimidinone]: the “Tet3 mRNA abundance” value in the test on Tet3 mRNA is given as “without affecting its mRNA abundance; also recorded: without altering its mRNA abundance; also recorded: no significant difference between the two groups”. Also, the TET2 protein level entry in the test with TET2 [1] (10 μM) was “not affected; also recorded: not TET2”. Further, in the test with TET2 [1] (10 mM (so in the source)), the TET2 protein level entry is recorded as “not significantly affected”. In the test with AGRP, NPY, and VGAT, the “AGRP, NPY, and VGAT protein in the ARC” value was “increased productions of AGRP, NPY, and VGAT; also recorded: a marked increase in their expressions”; the “Agrp, Npy and Slc32a1 mRNA in the ARC” value is “Increases in the mRNA levels of Agrp, Npy and Slc32a1; also recorded: increased expressions of Agrp, Npy, and Slc32a1”. Besides, in the test with TET3, the TET3 protein stability entry is on record as “induced protein degradation of TET3; also recorded: less stable”. Also, in the test with TET2 [2], the TET2 expression entry was “did not significantly affect TET2 expression”.
